# Data as given in patent US20250152577A1, “Pharmaceutical Composition of Ethidium Bromide and Use in Treating Cancer” (RUIJIN HOSPITAL, SHANGHAI JIAOTONG UNIVERSITY SCHOOL OF …, priority 2022, published 2025).
# Test system: AOM+DSS-induced colorectal tumor
# Test: AOM+DSS-induced spontaneous colorectal cancer mouse model
# Type: in vivo, mice
# Conditions: zalcitabine 33 mg/Kg alone, one month
# Description: The classical intraperitoneal injection of AOM and the spontaneous colorectal cancer formation by three rounds of DSS were utilized to construct a tumor mouse model. Mice were treated with ethidium bromide (500 mg/L dissolved in drinking water) one week after completion of the construction. […] Mice were sacrificed and their colorectum was taken for photographic observation and fixed staining.
# To further verify the above results, we then expanded the sample size to about 10-16 mice per group and still used the above AOM+DSS protocol to induce spontaneous colorectal cancer formation in mice. […] Meanwhile, since it has been reported that zalcitabine (ddC) can effectively impair the function of mitochondria (mainly the replication of mtDNA, similar to ethidium bromide), we added the experimental group of zalcitabine (33 mg/Kg) as a control.
# In addition, in order to investigate in what way ethidium bromide clears tumors in mice, we also tested cell proliferation (FIGS. 8A and B) and apoptosis (FIG. 8C-F) in tumor tissues and normal tissues surrounding the tumors in different treatment groups. Among them, cell proliferation was detected by immunohistochemistry of Ki67-positive cells, and apoptosis was detected by immunofluorescence staining of cleaved Caspase3.
# To further verify whether ethidium bromide is still effective against already existing larger tumors (advanced colorectal cancer), we set aside a group of control mice (started administration 5 weeks after the end of induction, equivalent to the control group of mice described above) to administer them by gavage (20 mg/Kg per day).
# We investigated the mechanism of ethidium bromide-induced apoptosis in tumor cells. First, tumor tissues treated with ethidium bromide (mice shown in FIGS. 7 and 8, treated for 4 weeks at 20 mg/Kg per day) were subjected to SDS-Loading buffer boiling lysis and tested for associated signaling pathways by Western blotting.
smiles,measurement,value
"Nc1ccn([C@H]2CC[C@@H](CO)O2)c(=O)n1 [zalcitabine, reference compound]",effect on spontaneous colorectal tumors,had no effect
